Results taken from US20090093454A1, “Chemical Compounds” (priority 2005, published 2009).

Test system: HIV-1
Assay: HIV infectivity assay (Table 2, strain not given)
Type: cell-based
Conditions: Human immunodeficiency virus 1, read-out: Activity Level
Procedure: (§1) Compounds were profiled against two HIV-1 viruses, the M-tropic (CCR5 utilizing) Ba-L strain and the T-tropic (CXCR4 utilizing) IIIB strain. Both viruses were propagated in human peripheral blood lymphocytes. Compounds were tested for there ability to block infection of the HOS cell line (expressing hCXCR4/hCCR5/hCD4/pHIV-LTR-luciferase) by either HIV-1 Ba-L or HIV-1, IIIB. Compound cytotoxicity was also examined in the absence of virus addition.
(§2) HOS cells (expressing hCXCR4/hCCR5/hCD4/pHIV-LTR-luciferase) were harvested and diluted in Dulbeccos modified Eagles media supplemented with 2% FCS and non-essential amino acid to a concentration of 60,000 cells/ml. The cells were plated into 96-well plates (100 ul per well) and the plates were placed in a tissue culture incubator (37° C.; 5% CO2/95% air) for a period of 24 h.
Subsequently, 50 ul of the desired drug solution (4 times the final concentration) was added to each well and the plates were returned to the tissue culture incubator (37° C.; 5% CO2/95% air) for 1 h. Following this incubation 50 ul of diluted virus was added to each well (approximately 2 million RLU per well of virus). The plates were returned to the tissue culture incubator (37° C.; 5% CO2/95% air) and were incubated for a further 96 h.
Following this incubation the endpoint for the virally infected cultures was quantified following addition of Steady-Glo Luciferase assay system reagent (Promega, Madison, Wis.). Cell viability or non-infected cultures was measured using a CellTiter-Glo luminescent cell viability assay system (Promega, Madison, Wis.). All luminescent readouts are performed on a Topcount luminescence detector (Packard, Meridien, Conn.).
as §1, with “Ba-L was” for “Both viruses were”, “either peripheral blood lymphocytes or SupT1/CCR5+/CXCR4+ cells. IIIB was propagated in” for “human”, “their” for “there”
as §2, with “FCS” for “FCS and non-essential amino acid”, “120,000” for “60,000”, “(50 μl” for “(100 ul”, “(370°” for “(37°”
Subsequently, 50 μl of the desired drug solution (2 times the final concentration) was added to each well and the plates were returned to the tissue culture incubator (370° C.; 5% CO2/95% air) for 1 h. Following this incubation, 60 μl of diluted virus (4 times the final concentration) was added to 60 μl of 2× the final desired concentration of the compound and 100 μl of this compound/virus mix was added to each well (approximately 2 million RLU per well of virus). The plates were returned to the tissue culture incubator (370° C.; 5% CO2/95% air) and were incubated for a further 96 h.

SMILES	IC50 [nM]
C[C@@H]1CN(c2cccc3nc(CN4CCC[C@H]5CCc6cccnc6[C@H]54)cn23)C[C@H](C)N1 [Example 77, (4aR,10bS)-1-({5-[(3R,5S)-3,5-dimethyl-1-piperazinyl]imidazo[1,2-a]pyridin-2-yl}methyl)-1,2,3,4,4a,5,6,10b-octahydro-1,10-phenanthroline]	< 100
N[C@@H]1CCN(c2cccc3nc(CN4CCC[C@H]5CCc6cccnc6[C@H]54)cn23)C1 [Example 110, (3R)-1-{2-[(4aR,10bS)-3,4,4a,5,6,10b-hexahydro-1,10-phenanthrolin-1(2H)-ylmethyl]imidazo[1,2-a]pyridin-5-yl}-3-pyrrolidinamine]	< 100
CN(C)C(=O)CN1CCN(c2cccc3nc(CN4CCC[C@H]5CCc6cccnc6[C@H]54)cn23)CC1 [Example 102, 2-(4-{2-[(4aR,10bS)-3,4,4a,5,6,10b-hexahydro-1,10-phenanthrolin-1(2H)-ylmethyl]imidazo[1,2-a]pyridin-5-yl}-1-piperazinyl)-N,N-dimethylacetamide]	< 100
NC1CCN(c2cccc3nc(CN4CCC[C@H]5CCc6cccnc6[C@H]54)cn23)CC1 [Example 89, 1-{2-[(4aR,10bS)-3,4,4a,5,6,10b-hexahydro-1,10-phenanthrolin-1(2H)-ylmethyl]imidazo[1,2-a]pyridin-5-yl}-4-piperidinamine]	< 100
c1ccc(Cn2ccnc2Cn2c(CN3CCC[C@@H]4CCc5cccnc5[C@H]43)nc3ccccc32)cc1 (relative stereo) [Example 46, (trans) 1-[(1-{[1-(phenylmethyl)-1H-imidazol-2-yl]methyl}-1H-benzimidazol-2-yl)methyl]-1,2,3,4,4a,5,6,10b-octahydro-1,10-phenanthroline]	500 to 10000
c1cnc2c(c1)CC[C@H]1CCN(Cc3nc4ccccc4n3CCCN3CCCCC3)[C@H]21 (racemic) [Example 133, (trans) 1-({1-[3-(1-piperidinyl)propyl]-1H-benzimidazol-2-yl}methyl)-2,3,3a,4,5,9b-hexahydro-1H-pyrrolo[3,2-h]quinoline]	100 to 500
c1cnc2c(c1)CC[C@H]1CCN(Cc3nc4ccccc4n3Cc3nc4ccccc4[nH]3)[C@H]21 (racemic) [Example 131, (trans) 1-{[1-(1H-benzimidazol-2-ylmethyl)-1H-benzimidazol-2-yl]methyl}-2,3,3a,4,5,9b-hexahydro-1H-pyrrolo[3,2-h]quinoline]	500 to 10000
c1cnc2c(c1)CC[C@@H]1CCCN(Cc3nc4ccccc4n3CCCN3CCCCC3)[C@H]21 (racemic) [Example 43, (cis) 1-({1-[3-(1-piperidinyl)propyl]-1H-benzimidazol-2-yl}methyl)-1,2,3,4,4a,5,6,10b-octahydro-1,10-phenanthroline]	< 100
CN1CCCC1CCNc1cccc2nc(CN3CCC[C@H]4CCc5cccnc5[C@H]43)cn12 (stereo partly drawn) [Example 104, 2-[(4aR,10bS)-3,4,4a,5,6,10b-hexahydro-1,10-phenanthrolin-1(2H)-ylmethyl]-N-[2-(1-methyl-2-pyrrolidinyl)ethyl]imidazo[1,2-a]pyridin-5-amine]	< 100
NCCCCn1c(CN2CC[C@@H]3CCc4cccnc4[C@H]32)nc2ccccc21 (racemic) [Example 130, (trans) 4-[2-(2,3,3a,4,5,9b-hexahydro-1H-pyrrolo[3,2-h]quinolin-1-ylmethyl)-1H-benzimidazol-1-yl]-1-butanamine]	100 to 500
CN1CCN(c2cccc3nc(CN4CCC[C@H]5CCc6cccnc6[C@@H]54)cn23)CC1 [Example 53, (4aR,10bR)-1-{[5-(4-methyl-1-piperazinyl)imidazo[1,2-a]pyridin-2-yl]methyl}-1,2,3,4,4a,5,6,10b-octahydro-1,10-phenanthroline]	< 100
CN(C)[C@@H]1CCN(c2cccc3nc(CN4CCC[C@H]5CCc6cccnc6[C@H]54)cn23)C1 [Example 105, (3R)-1-{2-[(4aR,10bS)-3,4,4a,5,6,10b-hexahydro-1,10-phenanthrolin-1(2H)-ylmethyl]imidazo[1,2-a]pyridin-5-yl}-N,N-dimethyl-3-pyrrolidinamine]	< 100
COCCN1CCN(c2cccc3nc(CN4CCC[C@H]5CCc6cccnc6[C@H]54)cn23)CC1 [Example 99, (4aR,10bS)-1-[(5-{4-[2-(methyloxy)ethyl]-1-piperazinyl}imidazo[1,2-a]pyridin-2-yl)methyl]-1,2,3,4,4a,5,6,10b-octahydro-1,10-phenanthroline]	< 100
NCCN1CCN(c2cccc3nc(CN4CCC[C@H]5CCc6cccnc6[C@H]54)cn23)CC1 [Example 92, [2-(4-{2-[(4aR,10bS)-3,4,4a,5,6,10b-hexahydro-1,10-Phenanthrolin-1(2H)-ylmethyl]imidazo[1,2-a]pyridin-5-yl}-1-piperazinyl)ethyl]amine]	< 100
c1cnc2c(c1)CC[C@@H]1CCCN(Cc3nc4ccccc4n3C[C@H]3CCCNC3)[C@H]21 [Example 64, (4aR,10bS)-1-({1-[(3S)-3-piperidinylmethyl]-1H-benzimidazol-2-yl}methyl)-1,2,3,4,4a,5,6,10b-octahydro-1,10-phenanthroline]	< 100
CN1CCC(Nc2cccc3nc(CN4CCC[C@H]5CCc6cccnc6[C@H]54)cn23)CC1 [Example 68, 2-[(4aR,10bS)-3,4,4a,5,6,10b-hexahydro-1,10-phenanthrolin-1(2H)-ylmethyl]-N-(1-methyl-4-piperidinyl)imidazo[1,2-a]pyridin-5-amine]	< 100
CC(C)N1CCC[C@H](Cn2c(CN3CCC[C@H]4CCc5cccnc5[C@H]43)nc3ccccc32)C1 [Example 65, (4aR,10bS)-1-[(1-{[(3S)-1-(1-methylethyl)-3-piperidinyl]methyl}-1H-benzimidazol-2-yl)methyl]-1,2,3,4,4a,5,6,10b-octahydro-1,10-phenanthroline]	< 100
NCCCCn1c(CN2CCC[C@H]3CCc4cccnc4[C@H]32)nc2ccccc21 (racemic) [Example 38, (cis) 4-[2-(3,4,4a,5,6,10b-hexahydro-1,10-phenanthrolin-1(2H)-ylmethyl)-1H-benzimidazol-1-yl]-1-butanamine]	100 to 500
CN(C)CCCn1c(CN2CCC[C@H]3CCc4cccnc4[C@H]32)nc2ccccc21 (racemic) [Example 41, (cis) 3-[2-(3,4,4a,5,6,10b-hexahydro-1,10-phenanthrolin-1(2H)-ylmethyl)-1H-benzimidazol-1-yl]-N,N-dimethyl-1-propanamine]	< 100
NCC1CCN(c2cccc3nc(CN4CCC[C@H]5CCc6cccnc6[C@H]54)cn23)CC1 [Example 85, [(1-{2-[(4aR,10bS)-3,4,4a,5,6,10b-hexahydro-1,10-phenanthrolin-1(2H)-ylmethyl]imidazo[1,2-a]pyridin-5-yl}-4-piperidinyl)methyl]amine]	< 100
CN1CCN(c2cccc3nc(CN4CCC[C@H]5CCCc6cccnc6[C@H]54)cn23)CC1 [Example 124, (4aR,11bS)-1-{[5-(4-methyl-1-piperazinyl)imidazo[1,2-a]pyridin-2-yl]methyl}-2,3,4,4a,5,6,7,11b-octahydro-1H-pyrido[3′,2′:6,7]cyclohepta[1,2-b]pyridine]	< 100
